Experiment: CLEAR OUTCOMES trial: adverse events and safety laboratory findings
Format: in vivo, human
Conditions: for Any muscle disorder, %: prespecified adverse event of special interest
Excerpt: The CLEAR OUTCOMES trial was a randomized, placebo-controlled, double-blind trial that enrolled patients at 1250 sites in 32 countries. An independent Data Monitoring Committee reviewed safety and efficacy data during the trial. Patients 18 to 85 years of age were eligible for enrollment if they met either of two criteria for increased cardiovascular risk, a prior cardiovascular event (secondary prevention) or clinical features that placed them at high risk for a cardiovascular event (primary prevention). (Nicholls […], Bays H E, et al. Rationale and design of the CLEAR-outcomes trial: Evaluating the effect of bempedoic acid on cardiovascular events in patients with statin intolerance. Am Heart J. 2021 May; 235: 104-112) All patients provided written informed consent. Patients had to report statin intolerance due to an adverse effect that started or increased during statin therapy and resolved or improved after statin therapy was discontinued. Patients could be enrolled if they tolerated a very low average daily statin dose (e.g., an average daily dose of rosuvastatin <5 mg, atorvastatin <10 mg, simvastatin <10 mg, lovastatin <20 mg, pravastatin <40 mg, fluvastatin <40 mg, or pitavastatin <2 mg). Other lipid-lowering therapies were permitted, including ezetimibe, niacin, bile acid resins, fibrates, and/or proprotein convertase subtilisin kexin type 9 (PCSK9) inhibitors. Full inclusion and exclusion criteria are provided in Nicholls et al. (Am Heart J. 2021). Eligible patients entered a 4-week run-in period during which patients were treated with single-blind placebo. If patients were intolerant to placebo treatment or if adherence was <80% by tablet count, they were not eligible for randomization. […] Beginning 6 months after enrollment, the central laboratory notified the investigator if the patient's LDL-cholesterol level was ≥25% higher than baseline. These patients were counseled on healthy dietary guidelines and reminded to take all lipid-regulating medications. If repeat testing confirmed that LDL-cholesterol value met the threshold criteria, the provider could adjust the lipid-lowering treatment regimen per standard of care and local guidelines.

[1] = N = 7001, listed as bempedoic acid
[2] = at any visit, repeated and confirmed, N = 7001

With `CC(C)(CCCCCC(O)CCCCCC(C)(C)C(=O)O)C(=O)O` [Bempedoic Acid, Bempedoic acid] as the compound, how does the “Adverse event leading to drug discontinuation, %” value (180 mg oral daily, N = 7001) read?
Its value is “(11.0) %”.

What about the “Any treatment emergent adverse event, %” value (180 mg oral daily, N = 7001) of the same compound?
Its value is “(86.3) %”.

And the “Serious treatment emergent adverse event, %” value (180 mg oral daily, N = 7001)?
The value was “(25.4) %”.

And the “Adjudicated tendon rupture, %” value (N = 7001)?
Its value is “(1.2) %”.

And the “Atrial fibrillation, %” value (N = 7001)?
Its value is “(3.3) %”.

What about the “Cholelithiasis, %” value (N = 7001) of the same compound?
The value was “(2.2) %”.

What about the “Discontinuation of treatment due to myalgia, %” value (N = 7001) of the same compound?
Its value is “(1.8) %”.

What about the “Elevated hepatic enzymes, %” value (N = 7001) of the same compound?
The value was “(4.5) %”.

What about the “Gout, %” value (N = 7001) of the same compound?
The value was “(3.1) %”.

What about the “Hyperuricemia, %” value (N = 7001) of the same compound?
Its value is “(10.9) %”.

And the “Hypoglycemia, %” value (N = 7001)?
Its value is “(4.3) %”.

And the “Malignancies, %” value (N = 7001)?
The value was “(4.7) %”.

And the “Metabolic acidosis, %” value (N = 7001)?
Its value is “(0.2) %”.

And the “Myalgia, %” value (N = 7001)?
The value was “(5.6) %”.

And the “Neurocognitive disorders, %” value (N = 7001)?
Its value is “(0.8) %”.

What about the “Renal impairment, %” value (N = 7001) of the same compound?
The value was “(11.5) %”.

What about the “Tendinopathies, %” value (N = 7001) of the same compound?
Its value is “(1.7) %”.

And the “Cholelithiasis, %” value [1]?
Its value is 2.2%.

What about the “Elevated hepatic enzymes, %” value [1] of the same compound?
Its value is 4.5%.

And the “Gout, %” value [1]?
Its value is 3.1%.

What about the “Hyperuricemia, %” value [1] of the same compound?
Its value is 10.9%.

And the “Renal impairment, %” value [1]?
The value was 11.5%.

What about the “Change from baseline in creatinine levels” value (after 6 months, mean) of the same compound?
The value was 0.05 mg/dL.

And the “Change from baseline in uric acid levels” value (after 6 months, mean)?
The value was 0.76 mg/dL.

What about the “Change from baseline in glycated hemoglobin level (%)” value (after 12 months, not a prespecified safety measure) of the same compound?
The value was 0.04%.

What about the “Creatine kinase levels >5x ULN (repeated and confirmed), %” value (at any visit, N = 7001) of the same compound?
The value was “(0.1) %”.

And the “Creatine kinase levels >5x ULN (single occurrence), %” value (at any visit, N = 7001)?
Its value is “(0.6) %”.

What about the “Alanine aminotransferase level >3 times ULN, %” value [2] of the same compound?
Its value is “(1.2) %”.

And the “Aspartate aminotransferase level >3 times ULN, %” value [2]?
Its value is “(1.1) %”.

What about the tolerability of treatment (discontinuation rates similar to placebo) of the same compound?
The tolerability of treatment was “well tolerated”.

And the “Worsening hyperglycemia, %” value (in patients with diabetes at baseline)?
The value was “(22.7) %”.

What about the “Mean changes in creatinine and uric acid from baseline compared with placebo” value (in vivo) of the same compound?
Its value is “larger”.

What about the “New onset diabetes in patients with normoglycemia at baseline, %” value (in vivo) of the same compound?
The value was “(5.5) %”.

And the “New onset diabetes in patients with pre-diabetes at baseline, %” value (in vivo)?
Its value is “(19.5) %”.

What about the “New onset diabetes in patients without diabetes at baseline, %” value (in vivo) of the same compound?
Its value is “(16.1) %”.

And the “Rates of liver transaminase elevations >3×ULN compared with placebo” value (in vivo)?
Its value is “more frequent”.

And the “Any muscle disorder, %” value (N = 7001)?
The value was “(15.0) %”.

What about the “Any muscle disorder, %” value [1] of the same compound?
Its value is 15.0%.

What about the “between group differences in overall rates of adverse events, serious adverse events, or adverse events leading to drug discontinuation” value (vs placebo) of the same compound?
The value was “not clinically meaningful between group differences”.

What about the “other prespecified adverse events of special interest (diabetes, hypoglycemia, metabolic acidosis, neurocognitive disorders, atrial fibrillation, tendinopathies, malignancies)” value (vs placebo) of the same compound?
Its value is “no differences”.

Source: patent US20240226048A1, “METHODS OF TREATMENT USING BEMPEDOIC ACID” (Esperion Therapeutics, Inc., priority 2023, published 2024)
